In paper PMC3923627 (Cell reports, 2013):
pIC50: −log10 of the molar value.

Biological target: p300 histone acetyltransferase (Homo sapiens, UniProt Q09472)
Assay: in vitro histone acetyltransferase assay with purified human p300
Format: biochemical

Sequence of p300 histone acetyltransferase (Q09472 2-2414): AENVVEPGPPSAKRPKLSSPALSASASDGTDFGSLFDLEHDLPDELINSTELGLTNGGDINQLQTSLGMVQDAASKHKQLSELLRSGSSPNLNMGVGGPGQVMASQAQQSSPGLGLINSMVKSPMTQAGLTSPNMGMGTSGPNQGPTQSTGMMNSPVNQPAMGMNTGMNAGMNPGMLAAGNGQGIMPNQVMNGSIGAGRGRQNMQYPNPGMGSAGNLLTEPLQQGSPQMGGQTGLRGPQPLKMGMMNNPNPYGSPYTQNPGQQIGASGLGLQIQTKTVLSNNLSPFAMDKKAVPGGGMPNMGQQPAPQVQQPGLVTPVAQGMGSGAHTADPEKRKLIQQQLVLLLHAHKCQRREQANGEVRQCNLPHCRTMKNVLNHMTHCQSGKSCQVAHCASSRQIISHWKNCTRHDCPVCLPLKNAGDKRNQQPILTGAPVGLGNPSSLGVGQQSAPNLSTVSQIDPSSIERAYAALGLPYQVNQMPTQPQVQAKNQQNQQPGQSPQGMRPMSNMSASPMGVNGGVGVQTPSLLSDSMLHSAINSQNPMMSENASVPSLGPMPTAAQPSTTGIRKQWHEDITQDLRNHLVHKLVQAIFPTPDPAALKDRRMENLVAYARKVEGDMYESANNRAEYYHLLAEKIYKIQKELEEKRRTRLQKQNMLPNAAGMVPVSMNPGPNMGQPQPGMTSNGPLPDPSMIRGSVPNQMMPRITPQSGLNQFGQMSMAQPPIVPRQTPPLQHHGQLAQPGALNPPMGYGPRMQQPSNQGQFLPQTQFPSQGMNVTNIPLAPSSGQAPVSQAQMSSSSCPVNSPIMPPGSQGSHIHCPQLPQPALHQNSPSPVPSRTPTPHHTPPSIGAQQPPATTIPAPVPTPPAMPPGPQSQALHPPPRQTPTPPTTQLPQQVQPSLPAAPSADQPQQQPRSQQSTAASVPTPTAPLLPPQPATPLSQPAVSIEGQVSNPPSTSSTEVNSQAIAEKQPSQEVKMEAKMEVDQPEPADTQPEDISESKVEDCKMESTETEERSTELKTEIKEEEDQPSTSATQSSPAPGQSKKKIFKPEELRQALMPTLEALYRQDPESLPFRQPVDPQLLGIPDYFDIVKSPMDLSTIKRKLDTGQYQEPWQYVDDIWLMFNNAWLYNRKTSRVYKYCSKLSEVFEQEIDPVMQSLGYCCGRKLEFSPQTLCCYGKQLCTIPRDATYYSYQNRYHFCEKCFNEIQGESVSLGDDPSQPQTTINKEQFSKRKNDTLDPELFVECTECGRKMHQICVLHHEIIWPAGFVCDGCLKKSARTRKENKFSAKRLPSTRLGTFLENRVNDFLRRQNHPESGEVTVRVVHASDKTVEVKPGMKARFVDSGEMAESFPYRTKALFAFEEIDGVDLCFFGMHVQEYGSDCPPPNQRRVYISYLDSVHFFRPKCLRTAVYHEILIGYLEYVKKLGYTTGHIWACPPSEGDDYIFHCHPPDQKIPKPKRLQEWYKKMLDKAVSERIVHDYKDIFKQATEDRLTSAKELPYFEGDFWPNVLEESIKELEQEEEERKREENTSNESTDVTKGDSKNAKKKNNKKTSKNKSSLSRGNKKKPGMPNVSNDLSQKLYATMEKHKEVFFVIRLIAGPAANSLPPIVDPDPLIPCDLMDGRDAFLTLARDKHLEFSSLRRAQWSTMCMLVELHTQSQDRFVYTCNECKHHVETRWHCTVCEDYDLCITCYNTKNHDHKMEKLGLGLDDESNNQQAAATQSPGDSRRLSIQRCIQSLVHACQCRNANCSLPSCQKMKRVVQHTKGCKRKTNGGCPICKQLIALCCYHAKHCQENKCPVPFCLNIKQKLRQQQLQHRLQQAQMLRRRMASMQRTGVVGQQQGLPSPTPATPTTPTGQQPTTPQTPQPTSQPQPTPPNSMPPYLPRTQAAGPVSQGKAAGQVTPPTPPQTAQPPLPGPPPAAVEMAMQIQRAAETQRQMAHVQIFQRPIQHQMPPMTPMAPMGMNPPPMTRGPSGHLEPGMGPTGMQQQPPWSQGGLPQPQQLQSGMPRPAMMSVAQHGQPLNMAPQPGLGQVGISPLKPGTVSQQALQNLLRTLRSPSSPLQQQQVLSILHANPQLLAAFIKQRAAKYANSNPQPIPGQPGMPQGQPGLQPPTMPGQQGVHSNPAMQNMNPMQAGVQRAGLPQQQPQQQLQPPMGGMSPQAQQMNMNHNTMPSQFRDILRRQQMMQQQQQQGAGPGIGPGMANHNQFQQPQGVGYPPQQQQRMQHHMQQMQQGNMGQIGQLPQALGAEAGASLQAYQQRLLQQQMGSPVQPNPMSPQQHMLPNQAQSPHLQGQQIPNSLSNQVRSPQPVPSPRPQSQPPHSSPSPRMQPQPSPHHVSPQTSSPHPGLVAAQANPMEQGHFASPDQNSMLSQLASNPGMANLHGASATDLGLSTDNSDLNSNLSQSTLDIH

pIC50: 5.38
Structure (SMILES): COc1ccc(/C(Cl)=C(/C=O)c2ccc(OC)cc2)cc1 [WD, (Z) 3-chloro-2,3-bis(4-methoxyphenyl)acrylaldehyde]
